Results from patent US6586216B2 (Purdue Research Foundation, priority 1997, dated 2003).
Where “and” joins values, the source holds several entries; their conditions need not be identical. Equal entries are not always repeated. Where two headings read alike, the source gives them in different places.

What was measured:
[1] = target: T1, wild type B. subtilis glutamine PRPP amidotransferase (Bacillus subtilis, UniProt P00497); test: Inhibition of enzyme activity by nucleotides (glutamate formation assay), wild type; type: biochemical; details: wild type; for Hill coefficient determined from inhibition data: PRPP present
T1 construct: Enzymes of the B. subtilis class are synthesized with an NH2 terminal propeptide and an Fe—S center; made in house; host or cells: E. coli strain TX158 (purF) with plasmid pGZ1
T1 sequence (P00497 12-476): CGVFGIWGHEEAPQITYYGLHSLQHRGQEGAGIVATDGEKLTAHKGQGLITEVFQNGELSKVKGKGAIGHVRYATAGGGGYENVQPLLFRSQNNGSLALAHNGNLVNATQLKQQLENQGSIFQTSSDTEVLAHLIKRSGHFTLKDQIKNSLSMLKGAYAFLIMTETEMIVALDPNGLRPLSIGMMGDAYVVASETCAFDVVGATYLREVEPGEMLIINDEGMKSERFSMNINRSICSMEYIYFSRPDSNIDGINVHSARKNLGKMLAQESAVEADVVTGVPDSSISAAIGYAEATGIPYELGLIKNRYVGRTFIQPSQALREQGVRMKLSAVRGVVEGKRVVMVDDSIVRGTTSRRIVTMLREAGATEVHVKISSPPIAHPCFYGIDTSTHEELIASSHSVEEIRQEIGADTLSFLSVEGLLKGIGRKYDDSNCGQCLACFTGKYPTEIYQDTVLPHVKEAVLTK
Description: (§1) Enzyme activity was assayed by measuring the initial rate of formation of the product glutamate. […] Incubation was at 37° C. for 6 min. […] Reactions were quenched in a boiling water bath for 2 min, and glutamate was determined by the glutamate dehydrogenase method.
(§2) Inhibition by nucleotides was determined by the standard assay to which varied concentrations of nucleotide were added. Synergistic inhibition was determined by varying the concentration of one nucleotide in the presence of a fixed concentration of a second nucleotide. Relative activity (see FIG. 1) refers to the enzyme activity at a given concentration of the varied nucleotide relative to that in the absence of the varied nucleotide. I0.5 values were calculated from plots of relative activity versus varied nucleotide concentration.

[2] = target: T2, Bacillus subtilis glutamine PRPP amidotransferase, wild type (Bacillus subtilis, UniProt P00497); test: Inhibition of enzyme activity (glutamate formation) by nucleotides, wild type; type: biochemical; details: for Hill coefficient from inhibition data: determined from inhibition data, PRPP present
T2 construct: Enzymes of the B. subtilis class are synthesized with an NH2 terminal propeptide; made in house; host or cells: E. coli strain TX158 (purF), plasmid pGZ1
Description: Plasmid pGZ1 was used for production of the wild type enzyme. […] For construction of mutants, the EcoRI-HindIII purF^+ DNA was transferred to pUC118 to yield pBsF. […] The resulting plasmids were named pBsF/S283A, pBsF/K305Q, pBsF/R307Q, and pBsF/S347A.
as §1, §2

[3] = target: T3, glutamine PRPP amidotransferase S347A mutant enzyme (Bacillus subtilis, UniProt P00497, S358A); type: biochemical
T3 construct: Enzymes of the B. subtilis class are synthesized with an NH2 terminal propeptide and an Fe—S center; made in house; host or cells: E. coli strain TX158 (purF) with plasmid pBsF/S347A
Description: as §1, §2
(§3) These modified forms of amidotransferase were analyzed to determine the impact of the mutations on end-product inhibition and enzymatic activity. Inhibition by nucleotides was determined as described in Example 1.

[4] = target: T1, wild type B. subtilis glutamine PRPP amidotransferase; test: Nucleotide binding by equilibrium dialysis; details: for Kd: apparent Kd, half-saturation of A and C sites
Description: Nucleotide binding was determined by equilibrium dialysis using chambers of 150 μL that were separated by a 12000-14000 molecular weight dialysis membrane. […] In some experiments, the chambers with radioactive nucleotide also contained a fixed concentration of a second non-radioactive nucleotide. The other chamber contained 50 mM Tris-HCl (pH 7.5) and 50-200 μM enzyme, calculated as the subunit concentration, in a volume of 100 μL. Dialysis was carried out for 20 h at room temperature (˜22° C.) in a rotating apparatus. Samples of 80 μL were retrieved from each chamber and were counted for radioactivity. All experiments were performed in an anaerobic glovebox. […] Equilibrium binding data were fit to the Hill equation (Y=C [free ligand]^n/[…]+[free ligand]^n, where Y is the fractional saturation, C is the binding capacity, Kd is the dissociation constant, and n is the Hill coefficient) by nonlinear regression using Ultrafit software (Biosoft, Cambridge, UK).

[5] = target: T4, Bacillus subtilis glutamine PRPP amidotransferase variant S283A (Bacillus subtilis, UniProt P00497, S294A); test: Inhibition of enzyme activity (glutamate formation) by nucleotides, mutant S283A; type: biochemical; details: for increase of concentration for 50% inhibition relative to wild type: ADP-GMP mixture
T4 construct: Enzymes of the B. subtilis class are synthesized with an NH2 terminal propeptide; made in house; host or cells: E. coli strain TX158 (purF), plasmid pBsF/S283A
Source text: Plasmid pGZ1 was used for production of the wild type enzyme. Plasmid pGZ1 contains a 1.6 kb EcoRI-HindIII purF^+ fragment (Makaroff, C. A., Zalkin, H., Switzer, R. L., and Vollmer, S. J. (1983) J. Biol. Chem. 258, pp. 10586-10593) inserted into the corresponding sites of pUC18. For construction of mutants, the EcoRI-HindIII purF^+ DNA was transferred to pUC118 to yield pBsF. Mutations were constructed by the method of Kunkel et al. (Kunkel, T. A., Roberts, J. D., and Zakour, R. A. (1987) Methods Enzymol. 154, pp. 367-382) using pBsF phagemid DNA. The resulting plasmids were named pBsF/S283A, pBsF/K305Q, pBsF/R307Q, and pBsF/S347A.
Enzyme activity was assayed by measuring the initial rate of formation of the product glutamate. […] Incubation was at 37° C. for 6 min. The reaction was linear with time for at least 20 min under these conditions of assay. Reactions were quenched in a boiling water bath for 2 min, and glutamate was determined by the glutamate dehydrogenase method. The control reaction mixture contained all the components except PRPP.
as §2
as §3, with “Site directed mutagenesis was utilized to modify amino acids comprising the A site and C site domains of the glutamine PRPP amidotransferase. These” for “These”

[6] = I0.5, no fixed nucleotide, 2.5 mM PRPP, pH 8.0, 37° C.
[7] = fixed GMP 1.0 mM, read-out: I0.5
[8] = no fixed nucleotide, at saturation ± standard error
[9] = fixed ADP 0.5 mM, read-out: I0.5
[10] = no fixed nucleotide, 2.5 mM PRPP, pH 8.0, 37° C., read-out: I0.5

T4 sequence (P00497 12-476 S294A): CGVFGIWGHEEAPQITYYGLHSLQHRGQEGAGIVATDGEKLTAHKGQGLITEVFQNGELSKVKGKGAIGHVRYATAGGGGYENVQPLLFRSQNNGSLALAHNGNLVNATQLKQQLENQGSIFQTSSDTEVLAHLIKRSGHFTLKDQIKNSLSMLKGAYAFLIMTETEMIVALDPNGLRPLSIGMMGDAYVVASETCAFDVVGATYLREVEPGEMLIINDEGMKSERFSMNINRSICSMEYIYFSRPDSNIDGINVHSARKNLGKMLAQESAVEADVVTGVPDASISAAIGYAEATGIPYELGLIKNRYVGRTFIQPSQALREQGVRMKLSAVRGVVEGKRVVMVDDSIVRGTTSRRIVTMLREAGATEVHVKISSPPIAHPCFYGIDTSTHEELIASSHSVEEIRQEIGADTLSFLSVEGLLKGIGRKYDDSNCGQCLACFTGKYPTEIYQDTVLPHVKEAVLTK
T3 sequence (P00497 12-476 S358A): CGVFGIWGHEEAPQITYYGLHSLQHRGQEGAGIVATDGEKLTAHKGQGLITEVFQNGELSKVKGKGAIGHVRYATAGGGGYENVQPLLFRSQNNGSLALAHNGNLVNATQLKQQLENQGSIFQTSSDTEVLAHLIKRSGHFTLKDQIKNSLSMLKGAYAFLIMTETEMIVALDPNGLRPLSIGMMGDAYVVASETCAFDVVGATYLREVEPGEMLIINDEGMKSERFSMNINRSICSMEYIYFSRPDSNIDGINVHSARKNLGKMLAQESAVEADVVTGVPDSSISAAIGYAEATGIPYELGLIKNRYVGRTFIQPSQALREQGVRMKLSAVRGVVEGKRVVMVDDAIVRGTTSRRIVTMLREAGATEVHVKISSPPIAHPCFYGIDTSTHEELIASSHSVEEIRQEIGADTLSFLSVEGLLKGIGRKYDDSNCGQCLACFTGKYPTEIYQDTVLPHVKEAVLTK

Row | SMILES | Hill coefficient determined from inhibition data [1] | syn. ([1]; fixed AMP 0.1 mM) | syn. ([1]; fixed GMP 1.0 mM) | concentration required for 50% inhibition relative to that of AMP ([1]; single nucleotide) [fold] | Hill coefficient from inhibition data [2] | syn. (decreased I0.5 due to a second nucleotide) ([2]; fixed AMP 0.1 mM) [fold] | syn. (decreased I0.5 due to a second nucleotide) ([2]; fixed GMP 1.0 mM) | IC50 [2, 7] [µM] | concentration for 50% inhibition relative to AMP ([2]; no fixed nucleotide) [fold] | syn. ([3]; fixed GMP 1.4 mM (footnote c)) | Hill coefficient ([4]; fixed GMP 1.0 mM) | Capacity [4, 8] | Hill coefficient ([4]; no fixed nucleotide, binding) | increase of concentration for 50% inhibition relative to wild type [5] [fold] | IC50 [5, 6] [µM] | I0.5 increase relative to wild type ([5]; no fixed nucleotide) | decreased inhibition relative to wild type ([5]; no fixed nucleotide) | syn. ([1]; fixed ADP 0.5 mM) | syn. (decreased I0.5 due to a second nucleotide) ([2]; fixed ADP 0.5 mM) | IC50 [2, 9] [µM] | also measured
1 | Nc1ncnc2c1ncn2[C@@H]1O[C@H](COP(=O)(O)OP(=O)(O)O)[C@@H](O)[C@H]1O [ADP] | 3.8 | 1.9 | 59 | 5 | 3.8 | 1.9 | 59 fold and 59.0 fold | 80 | 5 | 37.0 | 1.7 ± 0.9 | 1.83 equivalents bound per subunit and 1.83 ± 0.26 equivalents bound per subunit | 1.8 and 1.8 ± 0.65 | 30 | 24000 | 5-7 fold | 5-7 fold |  |  |  | syn. (decreased I0.5 due to a second nucleotide) ([1]; fixed GMP 0.25 mM): 20; syn. ([1]; fixed GMP 0.50 mM): 29.0; syn. ([1]; fixed GMP 2.0 mM): 118.0; syn. ([1]; fixed GMP 4.0 mM): 188.0; IC50 ([2]; I0.5, fixed GMP 0.25 mM): 240 µM; IC50 [2, 6]: 4700 µM; syn. (decreased I0.5 due to a second nucleotide) ([2]; fixed GMP 0.25 mM): 20 fold and 20.0 fold; syn. (decreased I0.5 due to a second nucleotide) ([2]; fixed GMP 0.50 mM): 29.0 fold; IC50 ([2]; fixed GMP 0.50 mM, read-out: I0.5): 160 µM; syn. (decreased I0.5 due to a second nucleotide) ([2]; fixed GMP 2.0 mM): 118.0 fold; IC50 ([2]; fixed GMP 2.0 mM, read-out: I0.5): 40 µM; syn. (decreased I0.5 due to a second nucleotide) ([2]; fixed GMP 4.0 mM): 188.0 fold; synergistic binding (decrease of Kd by second nucleotide) ([4]; ADP-GMP pair): 20 fold; equiv bound ([4]; GMP fixed at either 0.25 or 1.0 mM): approximately 1 equiv; Capacity ([4]; fixed GMP 0.25 mM): 0.82 ± 0.11 equivalents bound per subunit; Hill coefficient ([4]; fixed GMP 0.25 mM): 1.8 ± 0.8; Capacity ([4]; fixed GMP 1.0 mM): 0.94 ± 0.14 equivalents bound per subunit; IC50 ([5]; I0.5, fixed GMP 0.50 mM): 4800 µM; syn. (decreased I0.5 due to a second nucleotide) ([5]; fixed GMP 0.50 mM): 5.0 fold
2 | Nc1ncnc2c1ncn2[C@@H]1O[C@H](COP(=O)(O)O)[C@@H](O)[C@H]1O [AMP] | 3.3-3.8 |  | 1.0 |  | 3.3-3.8 |  | 1.0 fold | 940 |  | 0.8 | 2.1 ± 0.80 | 1.57 equivalents bound per subunit and 1.57 ± 0.27 equivalents bound per subunit | 3.4 and 3.4 ± 1.8 |  | 6100 | 5-7 fold | 5-7 fold | 1.4 | 1.4 fold | 640 | IC50 [2, 10]: 900 µM; syn. ([3]; fixed ADP 0.8 mM (footnote c)): 2.3; Kd ([4]; Kd, no fixed nucleotide): 214 µM and > 500 µM; increase in binding affinity by second nucleotide ([4]; by GMP or ADP): 2-3 fold; Hill coefficient ([4]; fixed ADP 0.25 mM): 2.3 ± 1.2; Capacity ([4]; fixed ADP 0.5 mM): approximately 0.4 equivalents bound per subunit
3 | Nc1nc2c(ncn2[C@@H]2O[C@H](COP(=O)(O)O)[C@@H](O)[C@H]2O)c(=O)[nH]1 [GMP] |  | 0.95 |  | 10 |  | 0.95 |  |  | 10 |  |  |  |  | 13 | 6600 |  |  | 63 | 63 fold and 63.0 fold | 150 | concentration required for 50% inhibition relative to that of ADP ([1]; single nucleotide): 2 fold; IC50 ([2]; fixed AMP 0.1 mM, read-out: I0.5): 9900 µM; concentration for 50% inhibition relative to ADP ([2]; no fixed nucleotide): 2 fold; IC50 [2, 10]: 9400 µM; syn. ([3]; fixed ADP 0.8 mM (footnote c)): 33.0; I0.5 increase compared to wild type ([3]; inhibition at the C site, ADP fixed): 3 fold; increased C site binding affinity relative to IMP and AMP ([4]; ADP bound to the A site): 3 fold; Capacity ([4]; fixed ADP 0.5 mM): 1 equivalents bound per subunit and 0.98 ± 0.10 equivalents bound per subunit; Hill coefficient ([4]; fixed ADP 0.5 mM): 2.1 ± 1.0; Kd of GMP for the free enzyme, estimated assuming 20-fold synergism ([4]; no fixed nucleotide): approximately 500 μM; Kd ([4]; no fixed nucleotide): too weak to detect; IC50 ([5]; I0.5, fixed ADP 0.5 mM): 2000 µM; IC50 ([5]; I0.5, fixed ADP 2.5 mM): 1700 µM; syn. (decreased I0.5 due to a second nucleotide) ([5]; fixed ADP 0.5 mM): 3.3 fold; syn. (decreased I0.5 due to a second nucleotide) ([5]; fixed ADP 2.5 mM): 3.9 fold; inhibition compared with wild type ([5]; no fixed nucleotide): similar
